Assay results: PMC7822874, “Chemoprotective antimalarials identified through quantitative high-throughput screening of Plasmodium blood and liver stage parasites” (Scientific Reports, 2021)
Where “and” joins values, the source holds several entries; their conditions need not be identical. Identical values can stand only once.

Assays:
[1] = system: T1, Plasmodium falciparum Dd2-attB (parental line), asexual blood stages; test: microbe, parasite or virus in culture; set-up: replicate k of 3 (each line is one of three independent assays; the three lines of one compound and parasite line follow each other); conditions: n = 1; for Individual replicates / Log AC50 (M): 72 h; for AC50: Plasmodium falciparum, DD2, 72 h, read-out: Individual replicates / Log AC50 (converted)
T1 construct: Dd2-attB, the isogenic parental line
Method in brief: (§1)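 Three independent runs, compound subset only; parental vs ScDHODH line compared by two-sided Student's t-test.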

[2] = system: T2, Plasmodium falciparum Dd2-attB-ScDHODH (transgenic line expressing yeast DHODH), asexual blood stages; test: organism not typed; set-up: replicate k of 3 (each line is one of three independent assays; the three lines of one compound and parasite line follow each other)
T2 construct: Dd2-attB-ScDHODH, the transgenic line that expresses yeast DHODH
Method in brief: as §1

[3] = 72 h; n = 1; read-out: Individual replicates / Log AC50 (converted)

| Structure (SMILES) | Individual replicates / Log AC50 (M) [1] | AC50 [1] | Individual replicates / Log AC50 (M) ([2]; 72 h, n = 1) | AC50 [2, 3] | Individual replicates / Log AC50 (M) ([2]; 72 h; n = 1) |
| --- | --- | --- | --- | --- | --- |
| Oc1cc(Nc2ccncc2)cc2cccnc12 [NCGC00183791-01] | -4.7486 Log AC50 (M) and -4.7986 Log AC50 (M) | 20 µM | -4.7486 Log AC50 (M) | 20 µM | – |
| Oc1ccc(CNc2ccccc2C(F)(F)F)c2cccnc12 [NCGC00184897-01] | -4.8986 Log AC50 (M) and -4.7986 Log AC50 (M) | 12.6 µM | -4.8486 Log AC50 (M) and -4.7486 Log AC50 (M) | 15.9 µM | – |
| Oc1ccc(CNc2ccccn2)c2cccnc12 [NCGC00184898-01] | -4.7486 Log AC50 (M) and -4.6986 Log AC50 (M) | 17.8 µM | -4.7486 Log AC50 (M) | 14.2 µM | – |
| N=C(N)c1cccc(-c2cnc3c(O)ccc(C(=O)O)c3c2)c1 [NCGC00241054-02] | -4.8986 Log AC50 (M) and -4.9486 Log AC50 (M) | 10 µM | -4.7486 Log AC50 (M) and -4.8486 Log AC50 (M) | 14.2 µM | – |
| NC(=O)c1cccc(-c2cnc3c(O)ccc(C(=O)O)c3c2)c1 [NCGC00241055-01] | – | 15.9 µM | – | 14.2 µM | – |
| Oc1ccc(COCc2ccc(F)cc2)c2cccnc12 [NCGC00183381-01] | -4.7986 Log AC50 (M) | 17.8 µM | -4.7486 Log AC50 (M) and -4.7986 Log AC50 (M) | 15.9 µM | – |
| CN1CCN(Cc2cc(COCc3ccccc3)c3cccnc3c2O)CC1 [NCGC00052276-02] | -5.1986 Log AC50 (M) and -5.0486 Log AC50 (M) | 5.03 µM | -5.2986 Log AC50 (M) (2×) and -4.9486 Log AC50 (M) | – | – |
| O=C(NCCCCCN1CCOCC1)c1cccc(-c2cc(O)c3ncccc3c2)c1 [NCGC00249387-01] | -4.9986 Log AC50 (M) | 7.1 µM | -4.6986 Log AC50 (M) and -5.0486 Log AC50 (M) and -4.7986 Log AC50 (M) | – | – |
| COc1cc(CN2CCc3nc(N4CCN(c5ncccn5)CC4)ncc3C2)cc(OC)c1OC [NCGC00131437-02] | -5.3486 Log AC50 (M) and -5.1486 Log AC50 (M) | 5.64 µM | -5.1486 Log AC50 (M) and -5.0986 Log AC50 (M) | 7.1 µM | – |
| COC(=O)c1ccc(O)c2ncc(-c3ccc(C(=O)N4CCN(C)CC4)cc3)cc12 [NCGC00189505-01] | -5.2486 Log AC50 (M) and -5.0486 Log AC50 (M) | 5.03 µM | -4.8986 Log AC50 (M) and -5.1486 Log AC50 (M) | 6.33 µM | – |
| CN(C)c1ccc(-c2cc(O)c3ncccc3c2)cc1 [NCGC00183795-01] | -5.0986 Log AC50 (M) and -5.1486 Log AC50 (M) | 8.94 µM | -4.7486 Log AC50 (M) and -4.9986 Log AC50 (M) | – | – |
| Cc1nn2c(c1-c1ccccc1-c1ccccc1)N(Cc1ccc(C(=O)O)s1)CCC2 [NCGC00420478-02] | -4.8986 Log AC50 (M) and -4.7986 Log AC50 (M) | 17.8 µM | -4.7486 Log AC50 (M) | 14.2 µM | – |
| Cc1ccc(C)c(NC2=C(c3ccc(C(F)(F)F)cc3)C(=O)c3ccccc32)c1 [NCGC00107302-02] | -5.8486 Log AC50 (M) and -5.6486 Log AC50 (M) (2×) | – | -5.0486 Log AC50 (M) and -4.9486 Log AC50 (M) and -4.9986 Log AC50 (M) | – | – |
| Cn1cnc(-c2nccc3c(O)nc(OCCCC(F)(F)F)nc23)c1 [NCGC00381768-01] | -4.7486 Log AC50 (M) and -4.7986 Log AC50 (M) | 15.9 µM | – | 17.8 µM | -4.7486 Log AC50 (M) |
| O=C(NCCCN1CCCCCC1)c1cccc(-c2cc(O)c3ncccc3c2)c1 [NCGC00247760-01] | -4.8986 Log AC50 (M) and -4.7486 Log AC50 (M) | 20 µM | – | 15.9 µM | – |
| CCCCOC(=O)c1ccnc2cc(C(OCCN3CCCCC3)c3ccccc3Cl)sc12 (stereo not shown) [NCGC00481505-01] | -5.2486 Log AC50 (M) and -5.0986 Log AC50 (M) | 8.94 µM | -5.0486 Log AC50 (M) and -5.1486 Log AC50 (M) | 14.2 µM | – |
| Cc1nnc2c3ccccc3nc(N3CCN(c4ccccc4)CC3)n12 [NCGC00107295-01] | -4.7986 Log AC50 (M) | 15.9 µM | – | 14.2 µM | – |
| COC(=O)c1ccc(O)c2ncc(N3CCOCC3)cc12 [NCGC00262492-01] | -5.3486 Log AC50 (M) and -5.3986 Log AC50 (M) | 5.64 µM | -5.2986 Log AC50 (M) | 5.64 µM | – |

| Structure (SMILES) | Individual replicates / Log AC50 (M) [1] | AC50 [1] | Individual replicates / Log AC50 (M) ([2]; 72 h, n = 1) | AC50 [2, 3] | Individual replicates / Log AC50 (M) ([2]; 72 h; n = 1) |
| --- | --- | --- | --- | --- | --- |
| CN(C)CCn1nc(-c2ccccc2O)nc1-c1ccccc1 [NCGC00390082-01] | -4.7486 Log AC50 (M) and -4.8486 Log AC50 (M) | 14.2 µM | -4.7986 Log AC50 (M) | 12.6 µM | – |
| CN(C)CCCNC(=O)c1ccc(-c2cc(O)c3ncccc3c2)cc1 [NCGC00183808-03] | -4.9486 Log AC50 (M) and -4.8986 Log AC50 (M) | 14.2 µM | -4.8486 Log AC50 (M) | 12.6 µM | – |
| CN(C)CC1CCCN(C2CCN(C(=O)c3cccc(-c4cc(O)c5ncccc5c4)c3)CC2)C1 (stereo not shown) [NCGC00247737-01] | -5.3986 Log AC50 (M) and -5.3486 Log AC50 (M) | 5.64 µM | -5.4486 Log AC50 (M) | 6.33 µM | – |
| O=C(O)c1ccc(O)c2ncc(-c3ccc(C(=O)N4CCNCC4)cc3)cc12 [NCGC00189508-01] | -4.7486 Log AC50 (M) and -4.7986 Log AC50 (M) | 15.9 µM | -4.7486 Log AC50 (M) | 15.9 µM | – |
| COC(=O)c1ccnc2cc(C(OCCC3CCCN3C)c3ccccc3Cl)sc12 (stereo not shown) [NCGC00481040-01] | -5.0986 Log AC50 (M) and -4.9486 Log AC50 (M) | 8.94 µM | -4.8486 Log AC50 (M) | 12.6 µM | – |
| CCOc1ccc(NC(=O)c2c(NCc3cccnc3)sc3c2CCCC3)cc1 [NCGC00140582-02] | -5.3486 Log AC50 (M) and -5.2986 Log AC50 (M) | 5.64 µM | -5.2486 Log AC50 (M) and -5.1486 Log AC50 (M) | 6.33 µM | – |
| Oc1ccc(Nc2ccccc2F)c2cccnc12 [NCGC00184886-01] | -5.6486 Log AC50 (M) and -5.5486 Log AC50 (M) | 3.56 µM | -5.5986 Log AC50 (M) | 4.48 µM | – |
| Oc1ccc(CCc2ccccc2)c2cccnc12 [NCGC00184902-01] | -5.2486 Log AC50 (M) | 7.1 µM | -4.8486 Log AC50 (M) and -5.1486 Log AC50 (M) | 7.1 µM | – |
| Cc1nn2c(c1-c1ccccc1Oc1ccccc1)N(CCCc1ccccc1)CCC2 [NCGC00499718-01] | -4.7986 Log AC50 (M) | 15.9 µM | – | 15.9 µM | -4.7986 Log AC50 (M) |
| CN(C)CCCCCNC(=O)c1cccc(-c2cc(O)c3ncccc3c2)c1 [NCGC00247747-01] | -4.8486 Log AC50 (M) | 14.2 µM | – | 14.2 µM | – |
| COC(=O)c1ccnc2sc(N(CCCN3CCCCC3)c3ccccc3Cl)nc12 [NCGC00480953-01] | -5.2486 Log AC50 (M) and -5.3486 Log AC50 (M) | 4.48 µM | -5.0986 Log AC50 (M) | 4.48 µM | – |
| Cc1cccc(N2CCN(C(=O)Cn3ncc4c3-c3ccccc3OC4)CC2)c1C [NCGC00112661-03] | -4.9486 Log AC50 (M) and -4.7486 Log AC50 (M) | – | -4.8986 Log AC50 (M) and -5.0986 Log AC50 (M) | – | – |
| O=C(NCCCc1ccccc1)c1cccc(-c2cc(O)c3ncccc3c2)c1 [NCGC00244536-01] | -5.2486 Log AC50 (M) and -5.1986 Log AC50 (M) | 7.1 µM | -4.8986 Log AC50 (M) | – | – |
| O=C(Nc1ccccc1F)c1ccc(Cn2nc(N3CCN(c4ccccc4)CC3)ccc2=O)o1 [NCGC00127944-02] | -5.1486 Log AC50 (M) and -5.0986 Log AC50 (M) | 7.97 µM | -5.0986 Log AC50 (M) and -5.0486 Log AC50 (M) | 8.94 µM | – |
| CN(C)CCCCNC(=O)c1cccc(-c2cc(O)c3ncccc3c2)c1 [NCGC00244528-01] | -4.8986 Log AC50 (M) and -4.8486 Log AC50 (M) | 17.8 µM | -4.7486 Log AC50 (M) | 15.9 µM | – |
| CCO/C=C(\C#N)C(=O)N1CCCN(c2cc(NCCC(=O)OC)nc(-c3ccccn3)n2)CC1 [NCGC00420783-01] | -5.0986 Log AC50 (M) and -5.0486 Log AC50 (M) | 8.94 µM | -5.0486 Log AC50 (M) and -4.8986 Log AC50 (M) | 10 µM | – |
| O=C(CC[S+](=O)([O-])c1nc(-c2cccs2)cc(C(F)(F)F)n1)Nc1ccc(OC(F)(F)F)cc1 [NCGC00103927-03] | -4.7986 Log AC50 (M) | 17.8 µM | -4.8486 Log AC50 (M) | 15.9 µM | – |
| O=C(O)c1ccnc(-n2ncc(C(OCCN3CCCCC3)c3cccc(-c4ccccc4)c3)c2-c2cccc(-c3ccccc3)c2)c1 (stereo not shown) [NCGC00487052-01] | -5.3986 Log AC50 (M) | 4.48 µM | -5.4986 Log AC50 (M) and -5.2986 Log AC50 (M) (2×) | – | – |
